{
  "source": "patent US9695155B2",
  "about": "“Herbicidal substituted pyrimidinyloxy benzene compounds” (E. I. DU PONT DE NEMOURS AND COMPANY, priority 2013, dated 2017)",
  "key": {"blackgrass [1]": {"test_system": "blackgrass", "assay": "Test D preemergence", "type": "in vivo, Alopecurus myosuroides", "settings": "Alopecurus myosuroides, pre-emergence, scale 0-100, read-out: Plant response rating, Blackgrass", "in_short": "(§1)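 In a controlled growth environment, treated and control plants were held 7 to 21 days, then compared visually. Damage was scored 0–100, where 100 means complete control. Sprays contained surfactant in a non-phytotoxic solvent; post-applied plants were at the 1- to 4-leaf stage.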"}, "Italian ryegrass": {"test_system": "Italian ryegrass", "assay": "Test D preemergence", "type": "in vivo, Lolium multiflorum", "settings": "Lolium multiflorum, pre-emergence", "in_short": "as §1"}, "lambsquarters": {"test_system": "lambsquarters", "assay": "Test D preemergence", "type": "in vivo, Chenopodium album", "settings": "Chenopodium album, pre-emergence, scale 0-100, read-out: Plant response rating, Lambsquarters", "in_short": "as §1"}, "oilseed rape": {"test_system": "oilseed rape", "assay": "Test D preemergence", "type": "in vivo, Brassica napus", "settings": "Brassica napus, pre-emergence, scale 0-100, read-out: Plant response rating, Oilseed Rape", "in_short": "as §1"}, "pigweed [2]": {"test_system": "pigweed", "assay": "Test D preemergence", "type": "in vivo, Amaranthus retroflexus", "settings": "Amaranthus retroflexus, pre-emergence", "in_short": "as §1"}, "speedwell": {"test_system": "speedwell", "assay": "Test D preemergence", "type": "in vivo, Veronica persica", "settings": "Veronica persica, pre-emergence", "in_short": "as §1"}, "blackgrass [3]": {"test_system": "blackgrass", "assay": "Test D postemergence", "type": "in vivo, Alopecurus myosuroides", "settings": "Alopecurus myosuroides, post-emergence, Postemergence, scale 0 to 100 (0 no effect, 100 complete control), read-out: Plant response rating, Blackgrass", "in_short": "as §1"}, "canarygrass": {"test_system": "canarygrass", "assay": "Test D postemergence", "type": "in vivo, Phalaris minor", "settings": "Phalaris minor, post-emergence, scale 0 to 100 (0 no effect, 100 complete control), read-out: Plant response rating, Canarygrass", "in_short": "as §1"}, "chickweed": {"test_system": "chickweed", "assay": "Test D postemergence", "type": "in vivo, Stellaria media", "settings": "Stellaria media, post-emergence, scale 0 to 100 (0 no effect, 100 complete control), read-out: Plant response rating, Chickweed", "in_short": "as §1"}, "pigweed [4]": {"test_system": "pigweed", "assay": "Test D postemergence", "type": "in vivo, Amaranthus retroflexus", "settings": "Amaranthus retroflexus, post-emergence, scale 0 to 100 (0 no effect, 100 complete control), read-out: Plant response rating, Pigweed", "in_short": "as §1"}, "wild oat": {"test_system": "wild oat", "assay": "Test D postemergence", "type": "in vivo, Avena fatua", "settings": "Avena fatua, post-emergence, scale 0 to 100 (0 no effect, 100 complete control), read-out: Plant response rating, Oat, Wild", "in_short": "as §1"}, "wild radish": {"test_system": "wild radish", "assay": "Test D postemergence", "type": "in vivo, Raphanus raphanistrum", "settings": "Raphanus raphanistrum, post-emergence, scale 0 to 100 (0 no effect, 100 complete control), read-out: Plant response rating, Radish, Wild", "in_short": "as §1"}, "sandbur": {"test_system": "sandbur", "assay": "Test E postemergence", "type": "in vivo, Cenchrus echinatus", "settings": "Cenchrus echinatus, post-emergence, read-out: Plant response rating, Sandbur", "in_short": "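Response was scored visually on a 0-100 scale (100 = complete control) versus controls after 14 to 21 days in the greenhouse. Test chemicals, formulated with surfactant in a non-phytotoxic solvent mixture, had been applied preemergence to seeds in silt loam soil or postemergence to 1- to 4-leaf plants in potting medium.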"}},
  "data": [
    {"smiles": "N#Cc1cccc(Oc2ncc(Br)cn2)c1-n1cc(C(F)(F)F)cn1", "note": "[Compound 59, 3-[(5-bromo-2-pyrimidinyl)oxy]-2-[4-(trifluoromethyl)-1H-pyrazol-1-yl]benzonitrile]", "values": [
      {"measurement": "pest or weed control at 31 g/ha", "setting": "blackgrass [1]; 31 g ai/ha", "value": 25, "unit": "%"},
      {"measurement": "pest or weed control at 62 g/ha", "setting": "blackgrass [1]; 62 g ai/ha", "value": 55, "unit": "%"},
      {"measurement": "pest or weed control at 125 g/ha", "setting": "blackgrass [1]; 125 g ai/ha", "value": 70, "unit": "%"},
      {"measurement": "pest or weed control at 250 g/ha", "setting": "blackgrass [1]; 250 g ai/ha", "value": 85, "unit": "%"},
      {"measurement": "pest or weed control at 31 g/ha", "setting": "Italian ryegrass; 31 g ai/ha, scale 0 (no effect) to 100 (complete control), read-out: Plant response rating, Ryegrass, Italian", "value": 0, "unit": "%"},
      {"measurement": "pest or weed control at 62 g/ha", "setting": "Italian ryegrass; 62 g ai/ha, scale 0-100, read-out: Plant response rating, Ryegrass, Italian", "value": 5, "unit": "%"},
      {"measurement": "pest or weed control at 125 g/ha", "setting": "Italian ryegrass; 125 g ai/ha, scale 0-100, read-out: Plant response rating, Ryegrass, Italian", "value": 60, "unit": "%"},
      {"measurement": "pest or weed control at 250 g/ha", "setting": "Italian ryegrass; 250 g ai/ha, scale 0-100, read-out: Plant response rating, Ryegrass, Italian", "value": 70, "unit": "%"},
      {"measurement": "pest or weed control at 31 g/ha", "setting": "lambsquarters; 31 g ai/ha", "value": 95, "unit": "%"},
      {"measurement": "pest or weed control at 62 g/ha", "setting": "lambsquarters; 62 g ai/ha", "value": 100, "unit": "%"},
      {"measurement": "pest or weed control at 125 g/ha", "setting": "lambsquarters; 125 g ai/ha", "value": 95, "unit": "%"},
      {"measurement": "pest or weed control at 250 g/ha", "setting": "lambsquarters; 250 g ai/ha", "value": 100, "unit": "%"},
      {"measurement": "plant injury at 31 g/ha", "setting": "oilseed rape; 31 g ai/ha", "value": 65, "unit": "%"},
      {"measurement": "plant injury at 62 g/ha", "setting": "oilseed rape; 62 g ai/ha", "value": 60, "unit": "%"},
      {"measurement": "plant injury at 125 g/ha", "setting": "oilseed rape; 125 g ai/ha", "value": 100, "unit": "%"},
      {"measurement": "plant injury at 250 g/ha", "setting": "oilseed rape; 250 g ai/ha", "value": 100, "unit": "%"},
      {"measurement": "pest or weed control at 31 g/ha", "setting": "pigweed [2]; 31 g ai/ha, scale 0 (no effect) to 100 (complete control), read-out: Plant response rating, Pigweed", "value": 100, "unit": "%"},
      {"measurement": "pest or weed control at 62 g/ha", "setting": "pigweed [2]; 62 g ai/ha, scale 0-100, read-out: Plant response rating, Pigweed", "value": 100, "unit": "%"},
      {"measurement": "pest or weed control at 125 g/ha", "setting": "pigweed [2]; 125 g ai/ha, scale 0-100, read-out: Plant response rating, Pigweed", "value": 100, "unit": "%"},
      {"measurement": "pest or weed control at 250 g/ha", "setting": "pigweed [2]; 250 g ai/ha, scale 0-100, read-out: Plant response rating, Pigweed", "value": 100, "unit": "%"},
      {"measurement": "pest or weed control at 31 g/ha", "setting": "speedwell; 31 g ai/ha, scale 0 (no effect) to 100 (complete control), read-out: Plant response rating, Speedwell", "value": 15, "unit": "%"},
      {"measurement": "pest or weed control at 62 g/ha", "setting": "speedwell; 62 g ai/ha, scale 0-100, read-out: Plant response rating, Speedwell", "value": 100, "unit": "%"},
      {"measurement": "pest or weed control at 125 g/ha", "setting": "speedwell; 125 g ai/ha, scale 0-100, read-out: Plant response rating, Speedwell", "value": 100, "unit": "%"},
      {"measurement": "pest or weed control at 250 g/ha", "setting": "speedwell; 250 g ai/ha, scale 0-100, read-out: Plant response rating, Speedwell", "value": 100, "unit": "%"},
      {"measurement": "pest or weed control at 62 g/ha", "setting": "blackgrass [3]; 62 g ai/ha", "value": 30, "unit": "%"},
      {"measurement": "pest or weed control at 31 g/ha", "setting": "blackgrass [3]; 31 g ai/ha", "value": 25, "unit": "%"},
      {"measurement": "pest or weed control at 125 g/ha", "setting": "blackgrass [3]; 125 g ai/ha", "value": 40, "unit": "%"},
      {"measurement": "pest or weed control at 250 g/ha", "setting": "blackgrass [3]; 250 g ai/ha", "value": 70, "unit": "%"},
      {"measurement": "pest or weed control at 31 g/ha", "setting": "canarygrass; 31 g ai/ha", "value": 20, "unit": "%"},
      {"measurement": "pest or weed control at 62 g/ha", "setting": "canarygrass; 62 g ai/ha", "value": 30, "unit": "%"},
      {"measurement": "pest or weed control at 125 g/ha", "setting": "canarygrass; 125 g ai/ha", "value": 35, "unit": "%"},
      {"measurement": "pest or weed control at 250 g/ha", "setting": "canarygrass; 250 g ai/ha", "value": 35, "unit": "%"},
      {"measurement": "pest or weed control at 31 g/ha", "setting": "chickweed; 31 g ai/ha", "value": 70, "unit": "%"},
      {"measurement": "pest or weed control at 62 g/ha", "setting": "chickweed; 62 g ai/ha", "value": 75, "unit": "%"},
      {"measurement": "pest or weed control at 125 g/ha", "setting": "chickweed; 125 g ai/ha", "value": 95, "unit": "%"},
      {"measurement": "pest or weed control at 250 g/ha", "setting": "chickweed; 250 g ai/ha", "value": 95, "unit": "%"},
      {"measurement": "pest or weed control at 31 g/ha", "setting": "pigweed [4]; 31 g ai/ha", "value": 100, "unit": "%"},
      {"measurement": "pest or weed control at 62 g/ha", "setting": "pigweed [4]; 62 g ai/ha", "value": 100, "unit": "%"},
      {"measurement": "pest or weed control at 125 g/ha", "setting": "pigweed [4]; 125 g ai/ha", "value": 95, "unit": "%"},
      {"measurement": "pest or weed control at 250 g/ha", "setting": "pigweed [4]; 250 g ai/ha", "value": 95, "unit": "%"},
      {"measurement": "pest or weed control at 31 g/ha", "setting": "wild oat; 31 g ai/ha", "value": 25, "unit": "%"},
      {"measurement": "pest or weed control at 62 g/ha", "setting": "wild oat; 62 g ai/ha", "value": 30, "unit": "%"},
      {"measurement": "pest or weed control at 125 g/ha", "setting": "wild oat; 125 g ai/ha", "value": 35, "unit": "%"},
      {"measurement": "pest or weed control at 250 g/ha", "setting": "wild oat; 250 g ai/ha", "value": 50, "unit": "%"},
      {"measurement": "pest or weed control at 31 g/ha", "setting": "wild radish; 31 g ai/ha", "value": 35, "unit": "%"},
      {"measurement": "pest or weed control at 62 g/ha", "setting": "wild radish; 62 g ai/ha", "value": 70, "unit": "%"},
      {"measurement": "pest or weed control at 125 g/ha", "setting": "wild radish; 125 g ai/ha", "value": 80, "unit": "%"},
      {"measurement": "pest or weed control at 250 g/ha", "setting": "wild radish; 250 g ai/ha", "value": 85, "unit": "%"},
      {"measurement": "pest or weed control at 31 g/ha", "setting": "sandbur; Postemergence, 31 g ai/ha, scale 0 to 100", "value": 0, "unit": "%"},
      {"measurement": "pest or weed control at 62 g/ha", "setting": "sandbur; Postemergence, 62 g ai/ha, scale 0 to 100", "value": 0, "unit": "%"},
      {"measurement": "pest or weed control at 125 g/ha", "setting": "sandbur; Postemergence, 125 g ai/ha, scale 0 to 100", "value": 10, "unit": "%"},
      {"measurement": "pest or weed control at 250 g/ha", "setting": "sandbur; Postemergence, 250 g ai/ha, scale 0 to 100", "value": 20, "unit": "%"},
      {"measurement": "pest or weed control at 16 g/ha", "setting": "sandbur; postemergence, 16 g ai/ha, scale 0 to 100, 0 no effect, 100 complete control", "value": 0, "unit": "%"}
    ]}
  ]
}
